Values after ≈ are worked out from the molar mass of the structure shown.
Legend:
Bacteroides fragilis = test: In vitro MIC against clinical isolates of B. fragilis (same agar method); type: cell-based; settings: 23 clinical isolates of B. fragilis; calculated geometrically
C. difficile = test: In vitro MIC against clinical isolates of C. difficile (Brucella agar with sheep's blood, anaerobic); type: cell-based, Clostridium difficile

Row | SMILES | MIC50 (Bacteroides fragilis) [μml] | MIC90 (Bacteroides fragilis) [μml] | MIC range (C. difficile; 60 clinical isolates of C. difficile) | MIC50 (C. difficile) [µg/mL] | MIC90 (C. difficile) [µg/mL] | MIC range (C. difficile; in µg/mL)
1 | CCC[C@@H]1C[C@@H](C(=O)N[C@@H]([C@H]2O[C@H](SC)[C@H](O)[C@@H](O)[C@H]2O)[C@H](C)Cl)N(C)C1 [clindamycin] | 55 | 13 |  |  |  | 
2 | Cc1ncc([N+](=O)[O-])n1CCO [metronidazole] | 1.4 | 2 | 0.25-4 μml |  |  | 
3 | CN[C@H](CC(C)C)C(=O)N[C@H]1C(=O)N[C@@H](CC(N)=O)C(=O)N[C@H]2C(=O)N[C@H]3C(=O)N[C@H](C(=O)N[C@H](C(=O)O)c4cc(O)cc(O)c4-c4cc3ccc4O)[C@H](O)c3ccc(c(Cl)c3)Oc3cc2cc(c3O[C@@H]2O[C@H](CO)[C@@H](O)[C@H](O)[C@H]2O[C@H]2C[C@](C)(N)[C@H](O)[C@H](C)O2)Oc2ccc(cc2Cl)[C@H]1O [vancomycin] |  |  |  | 0.38 (≈ 0.262 µM) | 0.8 (≈ 0.552 µM) | 0.13-2

Source: US5958873A, “Oral formulation for treatment of bacteria-induced diseases of the colon” (University of Cincinnati, priority 1997, dated 1999)
